US12441703B2, “Carboxamides as modulators of sodium channels” (VERTEX PHARMACEUTICALS INCORPORATED, priority 2019, dated 2025)

These compounds were tested against human NaV 1.8 (Homo sapiens, UniProt Q9Y5Y9) (assay: E-VIPR assay for detecting and measuring NaV inhibition properties). Conditions: E-VIPR assay conducted in the presence of human serum; HEK cells expressing truncated human NaV 1.8; read-out: IC50.
Type: cell-based
Source text: Sodium ion channels are voltage-dependent proteins that can be activated by inducing membrane voltage changes by applying electric fields. The electrical stimulation instrument and methods of use, referred to as E-VIPR, are described in International Publication No. WO 2002/008748 A3 and C.-J. Huang et al. Characterization of voltage-gated sodium channel blockers by electrical stimulation and fluorescence detection of membrane potential, 24 Nature Biotech. 439-46 (2006), both of which are incorporated by reference in their entirety. The instrument comprises a microtiter plate handler, an optical system for exciting the coumarin dye while simultaneously recording the coumarin and oxonol emissions, a waveform generator, a current- or voltage-controlled amplifier, and parallel electrode pairs that are inserted into assay plate wells. Under integrated computer control, this instrument passes user-programmed electrical stimulus protocols to cells within the wells of the microtiter plate.
16-20 hours prior to running the assay on E-VIPR, HEK cells expressing a truncated form of human NaV 1.8 with full channel activity were seeded into microtiter 384-well plates, pre-coated with matrigel, at a density of 25,000 cells per well. 2.5-5% KIR2.1 Bacmam virus was added to the final cell suspension before seeding into cell plates. HEK cells were grown in Dulbecco's Modified Eagle's Medium (DMEM) supplemented with 10% FBS (Fetal Bovine Serum, qualified; Sigma #F4135), 1% NEAA (Non-Essential Amino Acids, Gibco #11140), 1% HEPES (Gibco #15630), 1% Pen-Strep (Penicillin-Streptomycin; Gibco #15140) and 5 μg/ml Blasticidin (Gibco #R210-01). Cells were expanded in vented cap cell culture flasks, with 90-95% humidity and 5% CO2.
Compound Loading Buffer (2× concentration): Na/TMA Cl Bath1 Buffer containing HS (omitted in experiments run in the absence of human serum (HS)) 50%, VABSC-1 1 mM, BSA 0.2 mg/ml (in Bath-1), KCl 9 mM, DMSO 0.75%.
• 1) To reach the final concentration in each well, 400 nL of each compound was pre-spotted (in neat DMSO) into polypropylene compound plates at 250× desired final concentration from an intermediate stock concentration of 0.075 mM, in an 11 point dose response, 3-fold dilution, resulting in a top dose of 300 nM final concentration in the cell plate. Vehicle control (neat DMSO), and positive control (an established NaV1.8 inhibitor, 25 μM final in assay in DMSO) were added manually to the outermost columns of each plate respectively. The compound plate was backfilled with 45 μL per well of Compound Loading Buffer resulting in a 250 fold dilution of compound following a 1:1 transfer of compound into the cell plate (see Step 6). Final DMSO concentration for all wells in the assay was 0.625% (0.75% DMSO was supplemented to the Compound Loading Buffer for a final DMSO concentration of 0.625%). This assay dilution protocol was adjusted to enable a higher dose range to be tested in the presence of HS or if the final assay volume was altered. • 2) Hexyl Dye Solution was prepared. • 3) Cell plates were prepared. On the day of the assay, the media was aspirated, and the cells were washed three times with 80 μL of Bath-1 buffer, maintaining 25 μL residual volume in each well. • 4) 25 μL per well of Hexyl Dye Solution was dispensed into the cell plates. The cells were incubated for 20 minutes at room temperature or ambient conditions in darkness. • 5) 45 μL per well of Compound Loading Buffer was dispensed into compound plates. • 6) The cell plates were washed three times with 80 μL per well of Bath-1 Buffer, leaving 25 µL of residual volume. Then 25 μL per well from compound plate was transferred to each cell plate. The mixture was incubated for 30 minutes at room temperature/ambient conditions. • 7) The cell plate containing compound was read on E-VIPR using the current-controlled amplifier to deliver stimulation wave pulses using a symmetrical biphasic waveform. […]

Sequence of human NaV 1.8 (Q9Y5Y9 whole entry, looked up, the tested form may be a part): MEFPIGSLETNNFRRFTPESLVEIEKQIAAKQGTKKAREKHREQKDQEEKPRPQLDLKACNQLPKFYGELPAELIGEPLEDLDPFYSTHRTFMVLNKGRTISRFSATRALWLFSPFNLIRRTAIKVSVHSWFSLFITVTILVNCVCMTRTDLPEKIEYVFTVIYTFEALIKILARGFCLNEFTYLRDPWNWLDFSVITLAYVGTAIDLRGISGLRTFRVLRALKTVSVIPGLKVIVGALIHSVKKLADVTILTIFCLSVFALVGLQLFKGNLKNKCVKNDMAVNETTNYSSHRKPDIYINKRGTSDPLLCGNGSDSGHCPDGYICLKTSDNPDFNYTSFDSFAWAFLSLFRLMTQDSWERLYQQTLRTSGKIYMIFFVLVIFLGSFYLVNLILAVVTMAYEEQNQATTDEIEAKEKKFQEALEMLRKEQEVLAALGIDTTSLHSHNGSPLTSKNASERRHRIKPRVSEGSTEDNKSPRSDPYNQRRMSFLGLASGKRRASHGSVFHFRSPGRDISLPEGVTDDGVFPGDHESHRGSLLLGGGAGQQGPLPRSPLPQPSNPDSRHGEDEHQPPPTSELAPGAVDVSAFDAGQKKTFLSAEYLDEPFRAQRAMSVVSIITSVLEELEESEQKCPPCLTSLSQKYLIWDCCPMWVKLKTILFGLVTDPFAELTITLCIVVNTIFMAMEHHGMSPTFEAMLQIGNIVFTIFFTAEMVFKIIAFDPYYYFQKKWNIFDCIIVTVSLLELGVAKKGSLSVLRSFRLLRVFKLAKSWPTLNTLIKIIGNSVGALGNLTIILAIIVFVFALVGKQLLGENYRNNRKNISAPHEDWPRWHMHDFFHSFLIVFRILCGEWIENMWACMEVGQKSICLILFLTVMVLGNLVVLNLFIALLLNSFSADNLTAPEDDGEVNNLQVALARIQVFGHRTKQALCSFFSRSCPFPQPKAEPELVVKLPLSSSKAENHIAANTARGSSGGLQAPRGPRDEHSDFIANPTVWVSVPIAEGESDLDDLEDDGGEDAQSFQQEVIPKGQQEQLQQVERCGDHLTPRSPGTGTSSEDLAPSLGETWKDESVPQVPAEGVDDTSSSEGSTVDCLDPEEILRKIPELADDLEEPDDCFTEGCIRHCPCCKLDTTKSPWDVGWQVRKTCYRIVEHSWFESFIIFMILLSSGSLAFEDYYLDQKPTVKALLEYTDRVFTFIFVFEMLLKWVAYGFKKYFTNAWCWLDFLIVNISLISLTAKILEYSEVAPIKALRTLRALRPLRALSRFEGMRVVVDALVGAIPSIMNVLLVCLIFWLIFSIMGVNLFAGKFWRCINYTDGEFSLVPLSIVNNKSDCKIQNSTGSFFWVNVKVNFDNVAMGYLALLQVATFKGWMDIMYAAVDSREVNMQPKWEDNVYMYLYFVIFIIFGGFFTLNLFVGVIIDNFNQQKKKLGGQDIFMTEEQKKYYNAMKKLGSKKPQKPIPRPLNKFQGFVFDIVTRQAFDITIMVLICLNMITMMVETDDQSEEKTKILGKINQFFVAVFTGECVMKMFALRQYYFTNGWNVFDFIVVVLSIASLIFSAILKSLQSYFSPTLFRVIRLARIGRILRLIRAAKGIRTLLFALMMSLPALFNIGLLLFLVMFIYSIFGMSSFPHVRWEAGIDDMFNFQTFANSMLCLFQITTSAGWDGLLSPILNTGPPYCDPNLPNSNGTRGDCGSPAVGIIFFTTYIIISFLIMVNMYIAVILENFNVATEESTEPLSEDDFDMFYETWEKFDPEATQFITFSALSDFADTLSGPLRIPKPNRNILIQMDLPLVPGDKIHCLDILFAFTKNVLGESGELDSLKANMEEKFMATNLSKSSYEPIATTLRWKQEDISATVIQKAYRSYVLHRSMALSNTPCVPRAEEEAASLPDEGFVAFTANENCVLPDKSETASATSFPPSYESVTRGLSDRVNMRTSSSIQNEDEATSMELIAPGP

Compound | IC50 [nM]
COc1c(C(F)(F)F)ccc(Oc2ccc(OC(F)(F)F)c(F)c2)c1C(=O)Nc1ccnc(C(N)=O)c1 [Compound 65, 4-[[6-[3-fluoro-4-(trifluoromethoxy)phenoxy]-2-methoxy-3-(trifluoromethyl)benzoyl]amino]pyridine-2-carboxamide] | 36
NC(=O)c1cc(NC(=O)c2ccc(C(F)(F)F)cc2Oc2ccc(F)cc2F)ccn1 [Compound 111, 4-[[2-(2,4-difluorophenoxy)-4-(trifluoromethyl)benzoyl]amino]pyridine-2-carboxamide] | > 3000
COc1cc(Oc2ccc(F)c(F)c2OC)c(C(=O)Nc2cnc(C(N)=O)nc2)c(F)c1C(F)(F)F [Compound 380, 5-[[6-(3,4-difluoro-2-methoxy-phenoxy)-2-fluoro-4-methoxy-3-(trifluoromethyl)benzoyl]amino]pyrimidine-2-carboxamide] | 26
Cc1c(Oc2ccc(C(F)(F)F)c(C)c2C(=O)Nc2ccnc(C(N)=O)c2)ccc(OC(F)(F)F)c1F [Compound 290, 4-[[6-[3-Fluoro-2-Methyl-4-(Trifluoromethoxy)Phenoxy]-2-Methyl-3-(Trifluoromethyl)Benzoyl]Amino]Pyridine-2-Carboxamide] | 9.9
CNC(=O)c1cc(NC(=O)c2c(Oc3ccc(F)c(F)c3OC)cc(OC)c(C(F)(F)F)c2NC)ccn1 [Compound 300, 4-[[6-(3,4-Difluoro-2-Methoxy-Phenoxy)-4-Methoxy-2-(Methylamino)-3-(Trifluoromethyl)Benzoyl]Amino]-N-Methyl-Pyridine-2-Carboxamide] | 1400
COc1c(Oc2ccc(C(F)(F)F)c(Br)c2C(=O)Nc2ccnc(C(N)=O)c2)ccc(OC(F)(F)F)c1F [Compound 195] | 5

The next lines start with the values.

IC50 [nM] | Compound
73 | [2H]C([2H])([2H])Oc1cc(OC(F)(F)F)ccc1Oc1ccc(C(F)(F)F)cc1C(=O)Nc1ccnc(C(N)=O)c1 [Compound 105, 4-[[2-[2-(trideuteriomethoxy)-4-(trifluoromethoxy)phenoxy]-5-(trifluoromethyl)benzoyl]amino]pyridine-2-carboxamide]
4.6 | COc1c(Oc2ccc(C(F)(F)F)c(F)c2C(=O)Nc2cnc(C(N)=O)nc2)ccc(OC(F)(F)F)c1F [Compound 331, 5-[[2-fluoro-6-[3-fluoro-2-methoxy-4-(trifluoromethoxy)phenoxy]-3-(trifluoromethyl)benzoyl]amino]pyrimidine-2-carboxamide]
170 | COc1cc(OC(F)(F)F)ccc1Oc1cc(OC2C=C(F)C2)cc(C)c1C(=O)Nc1ccnc(C(N)=O)c1 (stereo not shown) [Compound 1038, 4-[[4-(3-fluorocyclobut-2-en-1-yl)oxy-2-[2-methoxy-4-(trifluoromethoxy)phenoxy]-6-methyl-benzoyl]amino]pyridine-2-carboxamide]
19 | COc1c(Oc2ccc(Cl)c(F)c2C(=O)Nc2ccc(C(N)=O)nc2)ccc(OC(F)(F)F)c1F [Compound 306, 5-[[3-chloro-2-fluoro-6-[3-fluoro-2-methoxy-4-(trifluoromethoxy)phenoxy]benzoyl]amino]pyridine-2-carboxamide]
54 | COc1c(Oc2ccc(F)c(F)c2C(=O)Nc2cc(C(N)=O)ncc2C)ccc(OC(F)(F)F)c1F [Compound 304, 4-[[2,3-difluoro-6-[3-fluoro-2-methoxy-4-(trifluoromethoxy)phenoxy]benzoyl]amino]-5-methyl-pyridine-2-carboxamide]
29 | COc1c(Oc2cnc(C(F)(F)F)c(C)c2C(=O)Nc2ccnc(C(N)=O)c2)ccc(F)c1F [Compound 375, N-(2-carbamoyl-4-pyridyl)-5-(3,4-difluoro-2-methoxy-phenoxy)-3-methyl-2-(trifluoromethyl)pyridine-4-carboxamide]
> 3000 | Cc1cc(Cl)cc(Cl)c1Oc1ccc(C(F)(F)F)c(F)c1C(=O)Nc1ccc(C(N)=O)nc1 [Compound 213, 5-[[6-(2,4-dichloro-6-methyl-phenoxy)-2-fluoro-3-(trifluoromethyl)benzoyl]amino]pyridine-2-carboxamide]
